Measurements published in article PMC10947850 (Angewandte Chemie (International ed. in English), 2024).

System: Fub7
Assay: steady-state kinetics of aldehyde alkylation
Type: biochemical
Conditions: co-substrate O-acetyl-L-homoserine; native nucleophile; PLP enzyme

With `CCCCCC=O` [n-hexanal] as the compound, how does the Km read?
The Km was 11 mM.
